Results: patent US20260177556A1, “PROXIMITY-BASED LABELING OF SIALYLATED GLYCOPROTEINS” (THE TRUSTEES OF PRINCETON UNIVERSITY, priority 2022, published 2026)

What was measured:
Format in all cases: cell-based
[1] = tested on: sialylated cell-surface glycoproteins of HeLa cells; assay: Glycomap labeling efficiency by streptavidin western blot densitometry; conditions: for Experiment/control: ratio of densitometry readouts
Description: HeLa cells (approx. 0.4×10^6 cells) were incubated in 6 well dishes in complete DMEM (2 mL) containing Ac4ManNAz (100 μM) at 37° C. for 72 hours. The cells were washed with DPBS (3×1 mL) and then incubated in complete DMEM (2 mL) containing DBCO-iridium (5 μM) or DBCO-biotin (5 μM) at 37° C. for 24 hours. The cells were washed with DPBS (3×1 mL) and irradiated in DMEM (no phenol-red, 200 μL) containing biotin-diazirine (250 μM) at room temperature for 20 minutes in the biophotoreactor (blue LEDs). The cells were washed with DPBS (3×1 mL), scraped in DPBS (1 mL), and transferred to 1.5 mL Eppendorf tubes. The cells were pelleted at 400×G for 5 minutes and resuspended in Ripa lysis buffer (500 μL). The cells were lysed by sonication (bioruptor) at 4° C. for 10 minutes (20 cycles, 15 sec on 15 sec off at 100% power). The protein concentration was normalized by BCA assay and the lysate was analyzed by Western blot (20 μg of protein per lane, 12% gel, 150 V). The gel was transferred via iBlot 2 to an NC membrane Following transfer, the membrane was immersed in Odyssey Blocking Buffer (Li-Cor, 927-50000) and incubated at room temperature for 1 hour. The blocking buffer was replaced with fresh blocking buffer (10 mL) containing anti-Actin antibody (10 μL) and the membrane was rocked for 1 hour. The buffer was decanted, and the membranes were washed with 1×TBST (4×5 min) and water (3×5 sec). […]
Based on the Western blot results shown in FIG. 2B the efficiency of labeling via Glycomap can be calculated using densitometry. […]
The whole calculation is listed below: • Densitometry readout DBCO-Iridium full experiment: 108′442 • Densitometry readout DBCO-Iridium control: 6′164 • Experiment/control: 17.6 • Densitometry readout DBCO-Biotin full experiment: 158′335 • Densitometry readout DBCO-Biotin control: 5′937 • Experiment/control: 26.7 • Comparison: 17.6/26.7=0.7 tags per catalyst.

[2] = tested on: HEK293T, HeLa or primary cervical epithelial cells; assay: Confocal microscopy of biotinylation after glycomap experiment; conditions: after Ac4ManNAz, 5 μM reagent, irradiation in presence of biotin-diazirine
Description: Cells (HEK293T, HeLa or primary cervical epithelial cells) (approx. 2×10^4 cells) were incubated in poly-lysine coated 8 well chamber slides in complete DMEM (200 μL) containing Ac4ManNAz (100 μM) at 37° C. for 48 hours. The cells were washed with DPBS (3×200 μL) and then incubated in complete DMEM (200 μL) containing DBCO-iridium (5 μM) or DBCO-biotin (5 μM) at 37° C. for 24 hours. The cells were washed with DPBS (3×200 μL) and irradiated in DMEM (no phenol-red, 200 μL) containing biotin-diazirine (250 μM) at room temperature for 20 minutes in the biophotoreactor (blue LEDs). The cells were washed with DPBS (3×200 μL) and fixed with prewarmed 4% paraformaldehyde (200 μL) at room temperature for 30 min. The cells were washed with DPBS (2×200 μL) and blocked with 3% BSA in DPBS (200 μL) at room temperature for 1 hour. The blocking buffer was replaced with fresh 3% BSA in DPBS (200 μL) containing Hoechst (1:1000), and Streptavidin-AlexaFluor 555 conjugate (1:1000). The cells were stained in the dark at room temperature for 1 hour and then stored in the dark at 4° C. The cells were imaged on a NIKON A1R-SI microscope (Nikon Instruments, Inc., Melville, NY) at 20× magnification. The images were processed with Fiji-ImageJ. Images shown are representative of the multiple cross-sectional images taken during each session.

[3] = tested on: HeLa cells; assay: Mass spectrometry-based metabolomic quantification of sialidase-treated cells; conditions: sialidase-treated vs untreated HeLa cells, 72 hours
Description: In transparent 10 cm dishes (×6), HeLa cells were grown for 72 hours in 5 mL complete DMEM supplemented with 10% FBS in presence or absence of neuraminidase (20 U/mL). After 72 hours, the cells were washed with DPBS (3×5 mL) and incubated with TrypLE (1 mL) for 15 minutes at 37° C. The cells were transferred to 15 mL conical tubes using 4 mL DPBS to wash the plates. The cells were pelleted at 500×G for 4 minutes and resuspended in 1 mL DPBS. The cells were counted, and 500′000 cells/experiment were transferred to 1.5 mL Eppendorf tubes. The cells were pelleted (500×g for 4 min), the supernatant removed, and the cells were lysed with ice cold 80% MeOH (60 μL) for 30 minutes at 0° C. The cell lysate was clarified by centrifugation at 20′000×G for 25 minutes and the lysates were transferred to new 0.5 mL Eppendorf tubes and stored at −80° C. until mass spectrometry analysis.
HPLC-grade water, methanol, and acetonitrile were obtained from Thermo Fisher Scientific. Supernatant sample was thawed at room temperature and kept at 4° C. in an autosampler. Samples were analyzed using a Q Exactive Plus mass spectrometer coupled to Vanquish UHPLC system (Thermo Fisher Scientific). LC separation was achieved using a XBridge BEH Amide column (2.1 mm×150 mm, 2.5-μm particle size, 130-A pore size; Waters, Milford, MA, USA) using a gradient of solvent A (20 mM ammonium acetate+20 mM ammonium hydroxide in 95:5 water/acetonitrile [pH 9.45]) and solvent B (acetonitrile). Flow rate was […]. The gradient was 0 min, 90% B; 2 min, 90% B; 3 min, 75%; 7 min, 75% B; 8 min, 70%, 9 min, 70% B; 10 min, 50% B; 12 min, 50% B; 13 min, 25% B; 14 min, 25% B; 16 min, 0% B, 20.5 min, 0% B; 21 min, 90% B; 25 min, 90% B. The column temperature was 25° C., and the injection volume was 5 μL. The mass spectrometer is operated in full scan mode with separate runs in positive mode and negative mode covering m/z 70-1000, with resolution 140,000 at m/z 200, AGC target 5E6, maximum injection time 200 ms.
Data analyses were performed using El-Maven and the metabolites identified with an in-house library using authentic standards.^3 Metabolite signal intensity were then further processed in Excel (median correction) and Graphpad Prism (transformation, t-test, and volcano plot generation).

[4] = tested on: HeLa cells; assay: Colorimetric zinc assay
Description: The zinc assay was purchased from Abcam (ab102507), and the experiment was performed according to the procedure below, adapted from the supplier's instructions.
In transparent 10 cm dishes, HeLa cells were grown in complete medium (DMEM, supplemented with 10% FBS) in presence (×3) or absence (×3) of VC-sialidase (20 mU/mL medium) for 96 hours. The medium was exchanged every 24 hours and fresh sialidase was added at those timepoints. After 96 hours, the medium was removed and DPBS (5 mL) was added. The cells were scraped, transferred to 15 mL conical tubes, and pelleted at 400×g for 5 minutes. The supernatant was removed, and the cells were lysed in 50 μL EDTA-free lysis buffer lysed by sonication (bioruptor) at 4° C. for 10 minutes.
The lysate was clarified at 18′000×g for 15 minutes and analyzed by BCA assay. 30 µL of the cell lysate was transferred to a 1.5 mL Eppendorf tube containing 30 μL of 7% TCA to precipitate proteins. The mixture was clarified at 18′000×g for 5 minutes and […] of the resulting solution were used for the zinc detection assay.

Row | Compound | Experiment/control [1] | biotinylation by confocal microscopy [2] | level of cytidine diphosphate choline (CDP-choline) [3] | level of cytidine diphosphate ethanolamine (CDP-Etn) [3] | level of phosphate ethanolamine (P-Etn) [3] | most metabolite levels [3] | Zinc concentration (nmol zinc/mg of protein-free lysate) ([4]; HeLa cells, VC-sialidase 20 mU/mL medium, 96 hours, single replicates) | zinc level vs untreated cells ([4]; sialidase-treated vs untreated HeLa cells) | tags per catalyst (labeling efficiency) ([1]; HeLa cells, Ac4ManNAz 100 μM, streptavidin blot densitometry, relative to DBCO-biotin)
1 | O=C(CCCC[C@@H]1SC[C@@H]2NC(=O)N[C@@H]21)NCC(C(=O)NCCC(=O)N1Cc2ccccc2C#Cc2ccccc21)S(=O)(=O)O (some centres unmarked) [DBCO-biotin, DBCO-Sulfo-Link-biotin, reference compound] | 26.7 | strong biotinylation |  |  |  |  |  |  | 
2 | VC-Sia: sialidase isolated from Vibrio cholerae, cleaves α2,3-, α2,6-, or α2,8-linked sialic acids |  |  | significantly increased | significantly increased | significantly increased | minimally affected | 1.4 nmol/mg | significantly higher | 
3 | [Ir(dCO2HdFCF3ppy)2(bpy-dbco) [DBCO-iridium] | 17.6 | strong biotinylation |  |  |  |  |  |  | 0.7 tags per catalyst
